# In patent US20140309295A1, “ANTIEPILEPTIC, HYPOCHOLESTEROLEMIC AND NEUROPROTECTIVE COMPOUND” (NEURON BIOPHARMA, S.A., priority 2009, published 2014):
# System: human neuroblastoma SK-N-MC cells
# Experiment: Protection against neuronal death induced by apoptosis (camptothecin), WST-1
# Format: cell-based
# Details: 20 nM camptothecin
# Procedure: The assay was performed on human neuroblastoma SK-N-MC cells in culture from the American Type Culture Collection (ATCC), in all cases strict rules of sterility were followed and the manipulation was performed in class II biological safety cabinets following European standard EN 12469. The cells were maintained in the following culture medium: Minimum Essential Medium Eagle (MEM) supplemented with 1 mM sodium pyruvate, 2 mM L-glutamine, 0.1 mM non-essential amino acids, 0.05 mg/ml gentamicin and 10% fetal bovine serum.
# The inhibition caused by compound NST0037 of cell death caused by treatment with camptothecin generating cell cycle arrest was analyzed. Camptothecin is an inhibitor of Topoisomerase I, it therefore prevents DNA duplication and triggers cell cycle arrest and death due to apoptosis. These cells, not exceeding 15 passages, were seeded on 96-well plates treated for adherent cells with a cell concentration of 5×10^4 cells/well; 3 wells of the plate were seeded for each condition of the assay.
# After 24 hours of cell incubation at 37° C. and 5% CO2, the cell treatments were performed with 100 μl of total volume for the following conditions: • Control: culture medium (medium) • Camptothecin (CPT): medium plus camptothecin 20 nM, causing death of 50% of the cells. • Camptothecin plus NST0037: medium plus camptothecin (20 nM) plus NST0037 at 1, 4, 10, 20, 40 or 100 μM.
# The cells were incubated (at 37° C. and 5% CO2) with these treatments for 22 hours, after which time the WST-1 reagent (Roche) was added. The Test WST-1 is based on the measurement of metabolic activity. Cell damage causes the loss of the ability of cells to obtain the energy necessary to maintain their metabolic functions and cell growth, therefore the metabolically active (live) cells reduce tetrazolium salt to formazan by means of the succinate-tetrazolium reductase system (of the mitochondrial respiratory chain). The formazan which is formed can be detected colorimetrically since it has an absorbance of 440 nm. The reading was taken in a plate reader at 440 nm 2 hours after adding the reagent.
smiles,measurement,setting,value
"CCC(CC)C(=O)O[C@H]1C[C@@H](C)C=C2C=C[C@H](C)[C@H](CC[C@@H]3C[C@@H](O)CC(=O)O3)[C@H]21 [NST0037, (1S,2S,6R,8S,8aR)-1,2,6,7,8,8a-hexahydro-3,7-dimethyl-8-[2-[(2R,4R)-tetrahydro-4-hydroxy-6-oxo-2H-pyran-2-yl]ethyl]-1-naphthalenyl-2-ethyl-butyrate]",protection against death caused by camptothecin,4 μM NST0037,18%
same,protection against death caused by camptothecin,10 μM NST0037,28%
same,protection against death caused by camptothecin,40 μM NST0037,27%
same,protection against death caused by camptothecin,100 μM NST0037,27%
